Read-outs that look alike come from different tables or passages of the source. Blank lines part the entries; values can stand above or below the molecule they belong to.
Assays:
[1] = tested on: Photobacterium sp. JH-ISH-224 α2-6-sialyltransferase Psp26ST(15-501)-His6 A366G mutant, SEQ ID NO: 2; experiment: Sialyltransferase kinetics, Psp26ST(15-501)-His6 A366G mutant; format: biochemical; details: apparent
Experimental: Reactions were carried out in duplicate at 20° C. for 20 minutes in a total volume of 10 μL in a proper buffer at the optimal pH according to the pH profile of the wild-type enzyme (see, Ding, 2011, supra). When LacβMU was used as an acceptor, the conditions were: Tris-HCl buffer (200 mM, pH 8.0), enzyme (0.3 μM), varied concentrations of LacβMU (0.1, 0.25, 0.4, 1.0, 2.0, 4.0, and 6.0 mM) with a fixed concentration of CMP-Neu5Ac (1.0 mM) or varied concentrations of CMP-Neu5Ac (0.1, 0.25, 0.4, 1.0, 2.0, 4.0, and 6.0 mM) with a fixed concentration of LacβMU (1.0 mM). When GalNAcα2AA was used as an acceptor, the conditions were: NaOAc-HOAc buffer (200 mM, pH 5.0), enzyme (6 μM), varied concentrations of GalNAcα2AA (0.5, 0.8, 1.0, 2.0, 4.0, 8.0, and 10.0 mM) and a fixed concentration of CMP-Neu5Ac (4.0 mM) or varied concentrations of CMP-Neu5Ac (0.5, 1.0, 2.0, 4.0, 5.0, 8.0, and 10.0 mM) with a fixed concentration of GalNAcα2AA (1.0 mM). When GalNAcαSer was used as an acceptor, the conditions were: Tris-HCl buffer (200 mM, pH 8.0), enzyme (0.6 μM), varied concentrations of GalNAcαSer (0.1, 0.25, 0.5, 1.0, 2.0, 4.0, 8.0, and 10.0 mM) and a fixed concentration of CMP-Neu5Ac (2.0 mM). When GalNAcαThr was used as an acceptor, the conditions were: Tris-HCl buffer (200 mM, pH 8.0), enzyme (3.0 μM), varied concentrations of GalNAcαThr (0.5, 1.0, 2.0, 4.0, 10.0, 20.0, 40.0, 60.0 mM) and a fixed concentration of CMP-Neu5Ac (4.0 mM). Results analysis was performed using the HPLC system as described above for sialyltransferase activity assays. Apparent kinetic parameters were obtained by fitting the experimental data (the average values of duplicate assay results) into the Michaelis-Menten equation using Grafit 5.0.

[2] = tested on: Photobacterium sp. JH-ISH-224 α2-6-sialyltransferase Psp26ST(15-501)-His6, wild type, SEQ ID NO: 23; details: apparent, cited from earlier work
[3] = Sialyltransferase activity assays, statements not tied to one acceptor (LacβMU, GalNAcα2AA, GalNAcαSer, GalNAcαThr); format: biochemical
Experimental: When LacβMU was used as an acceptor, the assay was performed in duplicate in 10 μL of Tris-HCl buffer (100 mM, pH 8.0) containing CMP-Neu5Ac (1 mM), LacβMU (1 mM), MgCl2 (20 mM), wild-type Psp2,6ST(15-501)-His6 or its mutant (0.3 μM). When an α-GalNAc-terminated acceptor was used, the assay was performed in duplicate in 10 μL of Tris-HCl buffer (100 mM, pH 8.0 for GalNAcαSer/Thr) or NaOAc-HOAc (100 mM, pH 5.0 for GalNAcα2AA) containing CMP-Neu5Ac (1.5 mM), the acceptor (1 mM), MgCl2 (20 mM), wild-type Psp2,6ST(15-501)-His6 or its mutant (3.0 μM). Reactions were allowed to proceed at 20° C. for 20 min and stopped by adding 10 μL of cold ethanol. The analysis of sialylated product conversion was performed using the HPLC system as described above for sialyltransferase activity assay. The 4-methylumbelliferone (MU)-labeled fluorescent acceptor and the product formed were detected with excitation at 325 nm and emission at 372 nm. The 2-aminobenzoic acid (2AA)-labeled fluorescent acceptors and the products formed were detected with excitation at 315 nm and emission at 400 nm. The 9-fluorenylmethylcarbamate (Fmoc)-labeled fluorescent acceptors and the products formed were detected with excitation at 262 nm and emission at 313 nm.

[4] = One-pot two-enzyme (OP2E) sialylation with NmCSS, GalNAcαThr as acceptor; format: biochemical; details: 2.5 equivalents of Neu5Ac and 5.0 equivalents of CTP
Description: White bars: GalNAcαSer was used as an acceptor with 1 equivalent of Neu5Ac and 1.5 equivalents of CTP. Grey bars: GalNAcαSer was used as an acceptor with 2.5 equivalents of Neu5Ac and 5.0 equivalents of CTP. Black bars: GalNAcαThr was used as an acceptor with 2.5 equivalents of Neu5Ac and 5.0 equivalents of CTP.
In this system, CTP and Neu5Ac were used by NmCSS for the formation of CMP-Neu5Ac in situ (see also, Yu and Chen, et al. Bioorg. Med. Chem. 2004, 12, 6427-6435). CMP-Neu5Ac was used as the donor substrate for Psp26ST(15-501)-His6 or its mutants. […] For example, using 1 equivalent of Neu5Ac and 1.5 equivalents of CTP in the one-pot two-enzyme (OP2E) reaction (white bars in FIG. 6) improved the GalNAcαSer α2-6-sialylation reaction yields from less than 6% (1 equivalent CMP-Neu5Ac was used) (FIG. 5B) to 32-51% for W365A, W365G, W365S mutants. Similarly, the OP2E reaction improved the GalNAcαSer α2-6-sialylation reaction yields from 40% and 37% to 75% and 67% for A366G mutant and the wild-type enzyme, respectively. Increasing the concentrations of Neu5Ac and CTP to 2.5 and 5.0 equivalents further improved the reaction yields to more than 67% for Psp26ST(15-501)-His6 and its mutants ([…]). […] Therefore, in situ generation of CMP-Neu5Ac, the sugar nucleotide donor for sialyltransferases, was proven an efficient method to enhance the yields for sialylation reactions catalyzed not only by the wild-type enzymes but also sialyltransferase mutants.

[5] = varied LacβMU, CMP-Neu5Ac 1.0 mM, Tris-HCl pH 8.0, 20° C.

Molecule: CC(=O)N[C@H]1[C@@H](O[C@H](C)[C@H](N)C(=O)O)O[C@H](CO)[C@H](O)[C@@H]1O [GalNAcαOThr]
- Km ([1]; varied GalNAcαThr, CMP-Neu5Ac 4.0 mM, Tris-HCl pH 8.0, 20° C.): 7.2 ± 3 mM
- Km ([2]; acceptor GalNAcαOThr): 5.9 ± 1.6 mM

Molecule: CC(=O)N[C@H]1[C@@H](OC[C@H](N)C(=O)O)O[C@H](CO)[C@H](O)[C@@H]1O [GalNAcαOSer]
- Km ([1]; varied GalNAcαSer, CMP-Neu5Ac 2.0 mM, Tris-HCl pH 8.0, 20° C.): 1.7 ± 0.7 mM
- Km ([2]; acceptor GalNAcαOSer): 1.4 ± 0.1 mM

Molecule: Cc1cc(=O)oc2cc(O[C@@H]3O[C@H](CO)[C@@H](O[C@@H]4O[C@H](CO)[C@H](O)[C@H](O)[C@H]4O)[C@H](O)[C@H]3O)ccc12 [LacβMU]
- Km [1, 5]: 0.41 mM
- kcat [1, 5]: (1.0 ± 0.1) × 10^2 min^−1
- Km ([2]; acceptor LacβMU): 0.36 mM
- kcat ([2]; acceptor LacβMU): (1.0 ± 0.1) × 10^2 min^−1

Molecule: GalNAcα2AA
- Km ([1]; varied GalNAcα2AA, CMP-Neu5Ac 4.0 mM, NaOAc-HOAc pH 5.0, 20° C.): 5.5 ± 1 mM
- Km ([2]; acceptor GalNAcα2AA): 9.5 ± 2.7 mM

B1: R153G: Psp26ST(15-501)-His6 with R153G point mutation; SEQ ID NO: 10 (protein)
chain: CNNSEENTQSIIKNDINKTIIDEEYVNLEPINQSNISFTKHSWVQTCGTQQLLTEQNKESISLSVVAPRLDDDEKYCFDFNGVSNKGEKYITKVTLNVVAPSLEVYVDHASLPTLQQLMDIIKSEEENPTAQRYIAWGGIVPTDEQMKELNITSFALINNHTPADLVQEIVKQAQTKHRLNVKLSSNTAHSFDNLVPILKELNSFNNVTVTNIDLYDDGSAEYVNLYNWRDTLNKTDNLKIGKDYLEDVINGINEDTSNTGTSSVYNWQKLYPANYHFLRKDYLTLEPSLHELRDYIGDSLKQMQWDGFKKFNSKQQELFLSIVNFDKQKLQNEYNSSNLPNFVFTGTTVWAGNHEREYYAKQQINVINNAINESSPHYLGNSYDLFFKGHPGGGIINTLIMQNYPSMVDIPSKISFEVLMMTDMLPDAVAGIASSLYFTIPAEKIKFIVFTSTETITDRETALRSPLVQVMIKLGIVKEENVLFWA
modifications: C-terminal His6; Synthetic Psp26ST(15-501) R153G
- sialylation activity compared to wild-type [3]: knocked out the sialylation activity completely

- sialylation activity compared to wild-type [3]: lost sialylation activity
B2: A124D: Psp26ST(15-501)-His6 with A124D point mutation; SEQ ID NO: 12 (protein)
chain: CNNSEENTQSIIKNDINKTIIDEEYVNLEPINQSNISFTKHSWVQTCGTQQLLTEQNKESISLSVVAPRLDDDEKYCFDFNGVSNKGEKYITKVTLNVVAPSLEVYVDHDSLPTLQQLMDIIKSEEENPTAQRYIAWGRIVPTDEQMKELNITSFALINNHTPADLVQEIVKQAQTKHRLNVKLSSNTAHSFDNLVPILKELNSFNNVTVTNIDLYDDGSAEYVNLYNWRDTLNKTDNLKIGKDYLEDVINGINEDTSNTGTSSVYNWQKLYPANYHFLRKDYLTLEPSLHELRDYIGDSLKQMQWDGFKKFNSKQQELFLSIVNFDKQKLQNEYNSSNLPNFVFTGTTVWAGNHEREYYAKQQINVINNAINESSPHYLGNSYDLFFKGHPGGGIINTLIMQNYPSMVDIPSKISFEVLMMTDMLPDAVAGIASSLYFTIPAEKIKFIVFTSTETITDRETALRSPLVQVMIKLGIVKEENVLFWA
modifications: C-terminal His6; Synthetic Psp26ST(15-501) A124D

- yield of Neu5Acα2-6GalNAcαThr from GalNAcαThr, OP2E [4]: 85%
B3: W365A: Psp26ST(15-501)-His6 with W365A point mutation; SEQ ID NO: 6 (protein)
chain: CNNSEENTQSIIKNDINKTIIDEEYVNLEPINQSNISFTKHSWVQTCGTQQLLTEQNKESISLSVVAPRLDDDEKYCFDFNGVSNKGEKYITKVTLNVVAPSLEVYVDHASLPTLQQLMDIIKSEEENPTAQRYIAWGRIVPTDEQMKELNITSFALINNHTPADLVQEIVKQAQTKHRLNVKLSSNTAHSFDNLVPILKELNSFNNVTVTNIDLYDDGSAEYVNLYNWRDTLNKTDNLKIGKDYLEDVINGINEDTSNTGTSSVYNWQKLYPANYHFLRKDYLTLEPSLHELRDYIGDSLKQMQWDGFKKFNSKQQELFLSIVNFDKQKLQNEYNSSNLPNFVFTGTTVAAGNHEREYYAKQQINVINNAINESSPHYLGNSYDLFFKGHPGGGIINTLIMQNYPSMVDIPSKISFEVLMMTDMLPDAVAGIASSLYFTIPAEKIKFIVFTSTETITDRETALRSPLVQVMIKLGIVKEENVLFWA
modifications: C-terminal His6; Synthetic Psp26ST(15-501) W365A

- yield of Neu5Acα2-6GalNAcαThr from GalNAcαThr, OP2E [4]: 91%
B4: W365G: Psp26ST(15-501)-His6 with W365G point mutation; SEQ ID NO: 4 (protein)
chain: CNNSEENTQSIIKNDINKTIIDEEYVNLEPINQSNISFTKHSWVQTCGTQQLLTEQNKESISLSVVAPRLDDDEKYCFDFNGVSNKGEKYITKVTLNVVAPSLEVYVDHASLPTLQQLMDIIKSEEENPTAQRYIAWGRIVPTDEQMKELNITSFALINNHTPADLVQEIVKQAQTKHRLNVKLSSNTAHSFDNLVPILKELNSFNNVTVTNIDLYDDGSAEYVNLYNWRDTLNKTDNLKIGKDYLEDVINGINEDTSNTGTSSVYNWQKLYPANYHFLRKDYLTLEPSLHELRDYIGDSLKQMQWDGFKKFNSKQQELFLSIVNFDKQKLQNEYNSSNLPNFVFTGTTVGAGNHEREYYAKQQINVINNAINESSPHYLGNSYDLFFKGHPGGGIINTLIMQNYPSMVDIPSKISFEVLMMTDMLPDAVAGIASSLYFTIPAEKIKFIVFTSTETITDRETALRSPLVQVMIKLGIVKEENVLFWA
modifications: C-terminal His6; Synthetic Psp26ST(15-501) W365G
